Source: patent publication US9695155B2, “Herbicidal substituted pyrimidinyloxy benzene compounds” (E. I. DU PONT DE NEMOURS AND COMPANY, priority 2013, dated 2017)

Assays:
[1] = tested on: barnyardgrass; assay: Test A preemergence; type: in vivo, Echinochloa crus-galli; settings: for Barnyardgrass plant response rating: 500 g ai/ha
In short: (§1)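 Scoring: eye-based comparison with untreated controls, 0 for no effect through 100 for complete control, at about day 10. Treatments: directed soil spray preemergence; foliar spray postemergence on 2–10 cm plants at the one- to two-leaf stage. Medium: loam soil with sand.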

[2] = tested on: wheat; assay: Test A postemergence; type: in vivo, Triticum aestivum
In short: as §1

[3] = tested on: sedge, umbrella; assay: Test B flooded paddy test; type: in vivo, Cyperus difformis; settings: Flood, 250 g ai/ha; 0 to 100 scale where 0 is no effect and 100 is complete control
In short: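 2-leaf stage plants; pots flooded to 3 cm, compound added to paddy water, depth maintained. Greenhouse 13–15 d. Visual rating vs untreated controls, 0 (no effect) to 100 (complete control); dash = no result.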

[4] = tested on: blackgrass; assay: Test C postemergence; type: in vivo, Alopecurus myosuroides; settings: for Blackgrass plant response rating / Plant response rating, Blackgrass: scale 0 to 100 (0 no effect, 100 complete control)
In short: (§2)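 Visual injury score versus untreated controls, 0 = no effect, 100 = complete control, taken 13 to 15 days after treatment in the greenhouse. Pre-emergence pots held loam/sand; post-emergence plants grew in sphagnum peat/vermiculite mix and were sprayed at the 1- to 4-leaf stage.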

[5] = tested on: large (Lg) crabgrass; assay: Test C postemergence; type: in vivo, Digitaria sanguinalis; settings: for Crabgrass, Large plant response rating / Plant response rating, Crabgrass, Large: scale 0 to 100 (0 no effect, 100 complete control)
Description: (§3) Seeds of plant species selected from blackgrass (Alopecurus myosuroides), Italian ryegrass (Lolium multiflorum), wheat, winter (winter wheat, Triticum aestivum), galium (catchweed bedstraw, Galium aparine), corn (Zea mays), large (Lg) crabgrass (Digitaria sanguinalis), giant foxtail (Setaria faberii), johnsongrass (Sorghum halepense), lambsquarters (Chenopodium album), morningglory (Ipomoea coccinea), yellow nutsedge (Cyperus esculentus), pigweed (Amaranthus retroflexus), ragweed (common ragweed, Ambrosia elatior), soybean (Glycine max), barnyardgrass (Echinochloa crus-galli), oilseed rape (Brassica napus), waterhemp (common waterhemp, Amaranthus rudis), kochia (Kochia scoparia), wild oat (Avena fatua), surinam grass (Brachiaria decumbens), foxtail, green (green foxtail, Setaria viridis), goosegrass (Eleusine indica), bromegrass, downy (downy bromegrass, Bromus tectorum), nightshade (eastern black nightshade, Solanum ptycanthum), cocklebur (common cocklebur, Xanthium strumarium), cupgrass, woolly (woolly cupgrass, Eriochloa villosa), bermudagrass (Cynodon dactylon), sunflower, (common oilseed sunflower, Helianthus annuus), Russian thistle (Salsola kali), and velvetleaf (Abutilon theophrasti) were planted into a blend of loam soil and sand and treated preemergence with test chemicals formulated in a non-phytotoxic solvent mixture which included a surfactant.
(§4) At the same time, plants selected from these crop and weed species and also barley, winter (winter barley, Hordeum vulgare), windgrass (Apera spica-venti), chickweed (common chickweed, Stellaria media), deadnettle (henbit deadnettle, Lamium amplexicaule), and canarygrass (littleseed canarygrass, Phalaris minor) were planted in pots containing Redi-Earth® planting medium (Scotts Company, 14111 Scottslawn Road, Marysville, Ohio 43041) comprising spaghnum peat moss, vermiculite, wetting agent and starter nutrients and treated with postemergence applications of test chemicals formulated in the same manner. Plants ranged in height from 2 to 18 cm (1- to 4-leaf stage) for postemergence treatments. Treated plants and controls were maintained in a greenhouse for 13 to 15 days, after which time all species were compared to controls and visually evaluated. Plant response ratings, summarized in Table C, are based on a scale of 0 to 100 where 0 is no effect and 100 is complete control. A dash (-) response means no test result.

[6] = tested on: johnsongrass; assay: Test C postemergence; type: in vivo, Sorghum halepense; settings: for Johnsongrass plant response rating / Plant response rating, Johnsongrass: scale 0 to 100 (0 no effect, 100 complete control)
In short: as §2

[7] = tested on: morningglory; assay: Test C postemergence; type: in vivo, Ipomoea coccinea; settings: for Plant response rating, Morningglory: scale 0 to 100 (0 no effect, 100 complete control)
In short: as §2

[8] = tested on: yellow nutsedge; assay: Test C postemergence; type: in vivo, Cyperus esculentus; settings: for Plant response rating, Nutsedge, Yellow: scale 0 to 100 (0 no effect, 100 complete control)
Description: as §3, §4

[9] = tested on: barnyardgrass; assay: Test C postemergence; type: in vivo, Echinochloa crus-galli; settings: for Barnyardgrass plant response rating / Plant response rating, Barnyardgrass: scale 0 to 100 (0 no effect, 100 complete control)
Description: as §3, §4

[10] = tested on: oilseed rape; assay: Test C postemergence; type: in vivo, Brassica napus; settings: for Plant response rating, Oilseed Rape: scale 0 to 100 (0 no effect, 100 complete control)
Description: as §3, §4

[11] = tested on: kochia; assay: Test C postemergence; type: in vivo, Kochia scoparia; settings: for Kochia plant response rating / Plant response rating, Kochia: scale 0 to 100 (0 no effect, 100 complete control)
Description: as §3, §4

[12] = 125 g ai/ha, 0 to 100 scale where 0 is no effect and 100 is complete control
[13] = 0 to 100 scale, 0 no effect, 100 complete control, approx. 10 days
[14] = 500 g ai/ha, 0 to 100 scale where 0 is no effect and 100 is complete control
[15] = 16 g ai/ha, postemergence, visual rating, 13 to 15 days
[16] = Postemergence, 31 g ai/ha, 13 to 15 days
[17] = 16 g ai/ha, postemergence, 0 is no effect, 100 is complete control
[18] = 125 g ai/ha, postemergence, visual rating
[19] = 1000 g ai/ha, 0 to 100 scale, 0 no effect, 100 complete control

Row | Structure (SMILES) | Plant response rating, Barnyardgrass [1, 12] | Barnyardgrass plant response rating [1, 13] | Plant response rating, Wheat [2, 12] | Plant response rating, Wheat [2, 14] | Plant response rating, Sedge, Umbrella [3] | Blackgrass plant response rating [4, 15] | Plant response rating (0 to 100), Blackgrass ([4]; 125 g ai/ha, postemergence) | Plant response rating, Blackgrass [4, 16] | Plant response rating, Blackgrass ([4]; Postemergence, 62 g ai/ha) | Crabgrass, Large plant response rating [5, 15] | Plant response rating (0 to 100), Crabgrass, Large ([5]; 125 g ai/ha, postemergence) | Plant response rating, Crabgrass, Large [5, 16] | Plant response rating, Crabgrass, Large ([5]; Postemergence, 62 g ai/ha) | Plant response rating, Johnsongrass ([6]; Postemergence, 62 g ai/ha) | Plant response rating, Morningglory ([7]; Postemergence, 62 g ai/ha) | Plant response rating, Nutsedge, Yellow ([8]; Postemergence, 62 g ai/ha) | Plant response rating, Barnyardgrass [9, 16] | Plant response rating, Barnyardgrass ([9]; Postemergence, 62 g ai/ha) | Plant response rating, Oilseed Rape ([10]; Postemergence, 62 g ai/ha) | Plant response rating, Kochia ([11]; Postemergence, 62 g ai/ha) | also measured
1 | CC(C)c1cnn(-c2c(C#N)cccc2Oc2ncc(Cl)cn2)c1 [Compound 85] | 20 | 100 | 0 | 70 | 30 | 0 | 10 | 0 | 5 | 10 | 10 | 10 | 5 | 5 | 25 | 5 | 5 | 5 | 30 | 80 | Johnsongrass plant response rating [6, 15]: 0; Plant response rating (0 to 100), Johnsongrass ([6]; 125 g ai/ha, postemergence): 10; Plant response rating, Johnsongrass [6, 16]: 0; Plant response rating (0 to 100), Morningglory ([7]; 125 g ai/ha, postemergence): 40; Plant response rating, Morningglory [7, 16]: 60; Plant response rating (0 to 100), Nutsedge, Yellow ([8]; 125 g ai/ha, postemergence): 10; Plant response rating, Nutsedge, Yellow [8, 16]: 5; Barnyardgrass plant response rating [9, 15]: 10; Plant response rating (0 to 100), Barnyardgrass ([9]; 125 g ai/ha, postemergence): 5; Plant response rating (0 to 100), Oilseed Rape ([10]; 125 g ai/ha, postemergence): 15; Plant response rating, Oilseed Rape [10, 16]: 5; Kochia plant response rating [11, 15]: 50; Plant response rating (0 to 100), Kochia ([11]; 125 g ai/ha, postemergence): 90; Plant response rating, Kochia [11, 16]: 50
2 | Cc1cnc(Oc2cccc(C#N)c2-n2cc(C#N)cn2)nc1 [Compound 90] | 70 | 100 | 0 | 50 | 40 | 0 | 15 | 0 | 5 | 5 | 10 | 5 | 10 | 5 | 75 | 10 | 5 | 5 | 50 | 45 | Johnsongrass plant response rating [6, 15]: 0; Plant response rating (0 to 100), Johnsongrass ([6]; 125 g ai/ha, postemergence): 5; Plant response rating, Johnsongrass [6, 16]: 5; Plant response rating (0 to 100), Morningglory ([7]; 125 g ai/ha, postemergence): 85; Plant response rating, Morningglory [7, 16]: 60; Plant response rating (0 to 100), Nutsedge, Yellow ([8]; 125 g ai/ha, postemergence): 10; Plant response rating, Nutsedge, Yellow [8, 16]: 5; Barnyardgrass plant response rating [9, 15]: 5; Plant response rating (0 to 100), Barnyardgrass ([9]; 125 g ai/ha, postemergence): 10; Plant response rating (0 to 100), Oilseed Rape ([10]; 125 g ai/ha, postemergence): 40; Plant response rating, Oilseed Rape [10, 16]: 5; Kochia plant response rating [11, 15]: 45; Plant response rating (0 to 100), Kochia ([11]; 125 g ai/ha, postemergence): 90; Plant response rating, Kochia [11, 16]: 70
3 | Clc1cnc(Oc2cccc(Br)c2-n2cc(I)nn2)nc1 [Compound 117] | 30 |  |  | 70 | 20 |  |  | 10 | 5 |  |  |  | 20 | 5 | 90 | 5 | 5 | 5 | 60 | 100 | Barnyardgrass plant response rating ([1]; 0 to 100 scale where 0 is no effect and 100 is complete control): 90; Plant response rating (0 to 100), Blackgrass [4, 17]: 5; Plant response rating, Blackgrass [4, 18]: 10; Plant response rating (0 to 100), Crabgrass, Large [5, 17]: 10; Plant response rating, Crabgrass, Large [5, 18]: 20; Plant response rating (0 to 100), Johnsongrass [6, 17]: 0; Plant response rating, Johnsongrass [6, 18]: 5; Plant response rating (0 to 100), Morningglory [7, 17]: 80; Plant response rating, Morningglory [7, 18]: 90; Plant response rating (0 to 100), Nutsedge, Yellow [8, 17]: 5; Plant response rating, Nutsedge, Yellow [8, 18]: 5; Plant response rating (0 to 100), Barnyardgrass [9, 17]: 5; Plant response rating, Barnyardgrass [9, 18]: 10; Plant response rating (0 to 100), Oilseed Rape [10, 17]: 25; Plant response rating, Oilseed Rape [10, 18]: 70; Plant response rating (0 to 100), Kochia [11, 17]: 90; Plant response rating, Kochia [11, 18]: 100
4 | FCc1cn(-c2ccccc2Oc2ncc(Cl)cn2)nn1 [Compound 123] |  |  |  |  | 40 |  |  | 0 | 0 |  |  |  | 5 | 10 | 55 | 10 | 15 | 15 | 60 | 70 | Plant response rating, Barnyardgrass [1, 19]: 100; Plant response rating, Wheat [2, 19]: 70; Plant response rating (0 to 100), Blackgrass [4, 17]: 0; Plant response rating, Blackgrass [4, 18]: 0; Plant response rating (0 to 100), Crabgrass, Large [5, 17]: 0; Plant response rating, Crabgrass, Large [5, 18]: 5; Plant response rating (0 to 100), Johnsongrass [6, 17]: 10; Plant response rating, Johnsongrass [6, 18]: 10; Plant response rating (0 to 100), Morningglory [7, 17]: 5; Plant response rating, Morningglory [7, 18]: 75; Plant response rating (0 to 100), Nutsedge, Yellow [8, 17]: 5; Plant response rating, Nutsedge, Yellow [8, 18]: 10; Plant response rating (0 to 100), Barnyardgrass [9, 17]: 10; Plant response rating, Barnyardgrass [9, 18]: 15; Plant response rating (0 to 100), Oilseed Rape [10, 17]: 30; Plant response rating, Oilseed Rape [10, 18]: 70; Plant response rating (0 to 100), Kochia [11, 17]: 50; Plant response rating, Kochia [11, 18]: 85
